Entries after “also recorded” stand apart in the source; their conditions may differ. Ends that are not written are not given here.
Experiments:
[1] = system: LPS-induced acute lung injury; assay: LPS-induced acute lung injury in mice, HE pathological examination of lung tissues; type: in vivo, Balb/C mice; settings: LPS 5 mg/kgBW i.p.
Protocol: 1. Grade-SPF male Balb/C mice, body weight: 20±2 g, and n=48
3. Grouping and treatment: mice were randomly divided into 8 groups (A-H), 6 pcs./group;
3-1: 3 different treatments were given for 3 consecutive days respectively before modeling:
A. normal control group: normal saline was injected via the tail vein for once/day;
B. LPS model group: normal saline was injected via the tail vein for once/day;
C. model sp2 administration group: sp2 (16 mg/kgBW) was injected via the tail vein for once/day;
D. model high-dose brap administration group: brap (16 mg/kgBW) was injected via the tail vein for once/day;
E. model medium-dose brap administration group: brap (8 mg/kgBW) was injected via the tail vein for once/day;
F. model low-dose brap administration group: brap (4 mg/kgBW) was injected via the tail vein for once/day;
G. model brap intranasal administration group: brap (3 mM) was administered nasal administration on both sides, 15 μl/each side; once a day;
H. model dexamethasone administration group (a positive control group): dexamethasone, DEX, 5 mg/kg was injected intraperitoneally for once a day.
Animals from groups A-H were continuously administered the above treatments for 30 min respectively, then group A was intraperitoneally injected isopyknic normal saline, and other groups were intraperitoneally injected LPS 5 mg/kgBW.
1. Tissue section and extending
2. Tissues were dewaxed and hydrated.
3. Tissues were dyed with a hematoxylin stain for 5-20 min (adjusted according to different tissues and experimental requirements), and washed by tap water.
4. Then, tissues were differentiated by a differentiation solution for 30 s.
5. Tissues were soaked by tap water for 15 min or warm water (about 50° C.) for 5 min.
6. Tissues were put in an Eosin stain for 2 min (adjusted according to different tissues and experimental requirements), and washed by tap water.
7. Then, the tissues were soaked by tap water for 5 min.
8. Dehydration by gradient alcohol: Tissues were dehydrated by 95%, 100% I, and 100% II for 1 min each;
9. Transparency by xylene: tissues were subjected to xylene I and II for 10 min.
10. Neutral balsam mounting.
11. Then, it was put and dried in an oven at 60° C., and observed under microscope.

[2] = system: OVA-induced allergic rhinitis; assay: Rat allergic nasal inflammation (OVA-induced allergic rhinitis), intranasal administration; type: in vivo, SD rat; settings: bilateral nasal cavities 50 μL/side, 4 weeks
Protocol: SD rat modeling: two stages of intraperitoneal injection for sensitization and intranasal dripping for stimulation. Ovalbumin was injected intraperitoneally, and 1 mg ovalbumin (V-class Sigma, USA) was dissolved in 1 ml normal saline, and 30 mg of aluminum hydroxide was added as an immunologic adjuvant. Each rat was intraperitoneally injected 1 ml ovalbumin suspension prepared above with 1 ml/time every other day and for 7 times in total; and stimulated intranasally with ovalbumin on the 15th day; 20 mg ovalbumin (V-class Sigma, USA) were dissolved in 1 ml normal saline to be prepared into a 2% solution; and the 2% ovalbumin solution was used for stimulation by nasal dripping; and 50 ul nasal drips were administered in each of the nasal cavities of each rat for 7 consecutive days.
Blank control group: 30 mg of aluminum hydroxide+1 ml of normal saline were mixed evenly, and then injected intraperitoneally; and the method was the same as the above.
Normal saline was dripped into nasal cavities on the 15th day.
After the final nasal dripping was performed, each rat was observed and evaluated according to a scoring table: Sneezing, nose scratching, gasping and nasal secretions
1. Administration way: a drug was administered with a micro-sampling gun, bilateral nasal cavities of a rat were administered with 50 μL/side, after being administered for 20 min, a 2% ovalbumin solution was administered to bilateral nasal cavities of the rat; 50 μL/side nasal dripping was administered for provocation; the above treatment was performed for 4 consecutive weeks to observe the pharmacodynamic effect.
High-dose synthetic peptide brap: a synthetic peptide brap freeze-dried powder (5 mg/bottle) was taken, and 1.63 ml sterile saline solution was added for dissolving;
medium-dose synthetic peptide brap: a synthetic peptide brap freeze-dried powder (5 mg/bottle) was taken, and 4.89 ml sterile saline solution was added for dissolving;
low-dose synthetic peptide brap: a synthetic peptide brap freeze-dried powder (5 mg/bottle) was taken, and 14.67 ml sterile saline solution was added for dissolving;

[3] = system: BK-induced pulmonary microvascular leakage; assay: BK-induced pulmonary microvascular leakage in guinea pigs (Evans blue in lung tissue); type: in vivo, guinea pig; settings: intranasal 50 μL/side/day for 3 days
Protocol: Male guinea pigs weighing 400 g±5% were randomly divided into 6 groups, 6 per group.
1. normal control group: an equal volume of normal saline was injected intravenously on the lateral foot vein, for 3 days;
2. model group: an equal volume of normal saline was injected intravenously on the lateral foot vein, for 3 days;
3. positive control group: 1.25 mg/3 ml/kg BW dexamethasone was injected intravenously on the lateral foot vein, for 3 days;
4. high-dose synthetic peptide brap group: bilateral nasal cavities of the guinea pig were injected the synthetic peptide brap having a concentration of 3.0 mM/L by a micro-sampling gun with 50 μL/side/day for 3 days; […]
2. […] The solution was centrifuged for 5 min at 1500 rpm/min; supernatant was taken to measure the absorbance with a wavelength of 620 nm.
3. Preparation of an EB standard curve: 0.1 mL 0.1% EB solution was taken accurately and added 0.9 mL normal saline to be prepared into 1 mL 0.01% EB standard solution; 0.1 mL EB standard solution was taken and added formamide to 2 mL with a final concentration of 5 mg/L; then the solution was diluted by formamide to 4, 2, 1, and 0.5 mg/L. An absorbancy OD value was measured at a wavelength of 620 nm; OD value was denoted y-coordinate; EB concentration was denoted by x-coordinate; then a standard curve of OD value-EB concentration was drawn, as shown in FIG. 7A.

Sequence: RVLNGPEAPA [brap]
- Lung tissue pathology (HE) ([1]; 16 mg/kgBW via tail vein once/day): No abnormality; also recorded: no thickened pulmonary septum and no obvious inflammatory cell infiltration
- Lung tissue pathology (HE) ([1]; intranasal 3 mM, 15 μl/each side once a day): no obvious abnormality
- Lung tissue pathology (HE) ([1]; medium and low dose, 8 and 4 mg/kgBW via tail vein once/day): inflammatory cell infiltration begins to appear
- Scoring change before and after treatment ([2]; all dose groups of the peptide, continued OVA provocation): decreases
- Allergic rhinitis symptom scoring compared with the model group ([2]; high, medium and low dose, significant difference): can improve the OVA-induced allergic rhinitis symptoms
- Content of EB in lung tissues compared with the positive control group (dexamethasone) ([3]; P>0.05, except for the low-dose group): no significant difference
- Content of EB in lung tissues compared with the model group ([3]; low, medium, high dose (0.33, 1.0, 3.0 mM/L), P<0.01, dose-response relationship): obviously lower than that in the model group
